This is an account of results in patent US6855730B2, “3-methylidenyl-2-indolinone modulators of protein kinase” (Sugen, Inc., priority 1998, dated 2005).

For one test, the target named is T1, PDGFR-β (Homo sapiens, UniProt P09619).
T1 construct: host or cells: NIH 3T3
Description: Biochemical PDGFR assay (ELISA, PDGFR-β expressing NIH 3T3 cell lysate). The conditions noted are these: read-out: bio PDGF IC50. From the text: This assay measures the in vitro kinase activity of PDGFR using ELISA.
Unless otherwise noted, the preparation of working solution-of the following reagents is the same as that for the Biochemical EGFR assay, above. • 1. […] 28D4C10 monoclonal anti-PDGFR antibody (Biochemistry Lab, SUGEN, Inc.). • 3. PBS (Dulbecco's Phosphate-Buffered Saline, Gibco Catalog No. 450-1300EB) • 4. TBST Buffer. • 5. Blocking Buffer. • 6. PDGFR-β expressing NIH 3T3 cell lysate (Screening Lab, SUGEN, Inc.). • 7. TBS Buffer. • 8. TBS+10% DMSO. • 9. […] MnCl2. • 11. Kinase buffer phosphorylation mix.
• 12. NUNC 96-well V bottom polypropylene plates (Applied Scientific Cat. No. AS-72092). • 13. Ethylenediaminetetraacetic acid (EDTA). • 14. Rabbit polyclonal anti-phosphotyrosine serum (Biochemistry Lab, SUGEN, Inc.). • 15. Goat anti-rabbit IgG peroxidase conjugate (Biosource Cat. No. ALI0404). • 16. 2,2′-azino-bis(3-ethylbenzthiazoline-6-sulfonic acid) (ABTS, Sigma Cat. No. A-1888). • 17. Hydrogen peroxide 30% solution (Fisher Cat. No. H325). • 18. ABTS/H2O2. • 19. 0.2 M HCl.
Procedure • 1. Coat Corning 96 well ELISA plates with 0.5 μg 28D4C10 in 100 μl PBS per well, store overnight at 4° C. • 2. Remove unbound 28D4C10 from wells by inverting plate to remove liquid. Wash 1× with dH2O. Pat the plate on a paper towel to remove excess liquid. • 3. Add 150 μl of Blocking Buffer to each well. Incubate for 30 min. at room temperature with shaking. • 4. Wash plate 3× with deionized water, then once with TBST. Pat plate on a paper towel to remove excess liquid and bubbles. • 5. Dilute lysate in HNTG (10 μg lysate/100 μl HNTG) • 6. Add 100 μl of diluted lysate to each well. Shake at room temperature for 60 min. • 7. Wash plates as described in 4, above. • 8. Add 80 μl working kinase buffer mix to ELISA plate containing captured PDGFR. • 9. Dilute test compound 1:10 in TBS in 96-well polypropylene plates (i.e., 10 μl compound+90 μl TBS). • 10. Add 10 μl diluted test compound to ELISA plate. […] Incubate for 30 minutes while shaking at room temperature. • 12. Add 10 μl ATP directly to all wells except negative control well (final well volume should be approximately 100 μl with 20 μM ATP in each well.) Incubate 30 minutes while shaking. • 13. After 30 minutes, stop reaction by adding 10 μl of 200 mM EDTA (pH 8.0) to each well. • 14. Wash 4× with deionized water, twice with TBST. • 15. Add 100 μl anti-phosphotyrosine (1:3000 dilution in TBST) per well. Incubate 30-45 min. at room temperature, with shaking. • 16. Wash as described in 4, above. • 17. Add 100 μl Biosource Goat anti-rabbit IgG peroxidase conjugate (1:2000 dilution in TBST) to each well. Incubate 30 min. at room temperature, with shaking. • 18. Wash as described in 4, above. • 19. Add 100 μl of ABTS/H2O2 solution to each well. • 20. Incubate 10 to 30 minutes with shaking. Remove any bubbles. • 21. If necessary stop reaction with the addition of 100 μl 0.2 M HCl per well. • 22. Read assay on Dynatech MR7000 ELISA reader: test filter: 410 nM, reference filter: 630 nM.

The target of a further test is T2, flkGST (Homo sapiens, UniProt P35968).
T2 construct: GST
Put plainly: bio flkGST assay. The class given is biochemical.

In test [1] the target is T3, chimeric receptor containing the EGFR extracellular domain and intracellular HER2 kinase domain (Homo sapiens, UniProt P04626).
T3 construct: fused on or other part: EGFR ectodomain + HER2 intracellular part, ATP-site indolinones: HER2's kinase
Description: EGF Receptor-HER2 chimeric receptor assay in whole cells (ELISA). The class given is cell-based. The settings on record: read-out: HER-2 kinase IC50. The method, then:
EGF Receptor-HER2 Chimeric Receptor Assay In Whole Cells.
HER2 kinase activity in whole EGFR-NIH3T3 cells are measured as described below:
• a. […] 05-101 (UBI) (a monoclonal antibody recognizing an EGFR extracellular domain). • c. Anti-phosphotyrosine antibody (anti-Ptyr) (polyclonal) (see, Fendley, et al., supra). • d. Detection antibody: Goat anti-rabbit IgG horseradish peroxidase conjugate, TAGO, Inc., Burlingame, Calif. • e. TBST buffer:
• h. Stock reagents of:
Pre-coat ELISA Plate • 1. […] Coated plates are good for up to 10 days when stored at 4° C. • 2. On day of use, remove coating buffer and replace with 100 μl blocking buffer (5% Carnation Instant Non-Fat Dry Milk in PBS). Incubate the plate, shaking, at room temperature (about 23° C. to 25° C.) for 30 minutes. Just prior to use, remove blocking buffer and wash plate 4 times with TBST buffer.
Seeding Cells • 1. An NIH3T3 cell line overexpressing a chimeric receptor containing the EGFR extracellular domain and intracellular HER2 kinase domain can be used for this assay. • 2. Choose dishes having 80-90% confluence for the experiment. Trypsinize cells and stop reaction by adding 10% fetal bovine serum. Suspend cells in DMEM medium (10% CS DMEM medium) and centrifuge once at 1500 rpm, at room temperature for 5 minutes. • 3. Resuspend cells in seeding medium (DMEM, 0.5% bovine serum), and count the cells using trypan blue. Viability above 90% is acceptable. Seed cells in DMEM medium (0.5% bovine serum) at a density of 10,000 cells per well, 100 μl per well, in a 96 well microtiter plate. Incubate seeded cells in 5% CO2. at 37° C. for about 40 hours.
Assay Procedures • 1. Check seeded cells for contamination using an inverted microscope. Dilute drug stock (10 mg/ml in DMSO) 1:10 in DMEM medium, then transfer 5 μl to a […] well for a final drug dilution of 1:200 and a final DMSO concentration of 1%. Control wells receive DMSO alone. Incubate in 5% CO2 at 37° C. for two hours. • 2. Prepare EGF ligand: dilute stock EGF in DMEM so that upon transfer of 10 μl dilute EGF (1:12 dilution), 100 nM final concentration is attained. • 3. Prepare fresh HNTG* sufficient for 100 μl per well, and place on ice.
• 4. After 120 minutes incubation with drug, add prepared […] ligand to cells, 10 μl per well, to a final concentration of 100 nM. Control wells receive DMEM alone. Incubate with shaking, at room temperature, for 5 minutes. • 5. Remove drug, EGF, and DMEM. Wash cells twice with PBS. Transfer HNTG* to cells, 100 μl per well. Place on ice for 5 minutes. Meanwhile, remove blocking buffer from other ELISA plate and wash with TBST as described above. • 6. With a pipette tip securely fitted to a micropipettor, scrape cells from plate and homogenize cell material by repeatedly aspirating and dispensing the HNTG* lysis buffer. Transfer lysate to a coated, blocked, and washed ELISA plate. Incubate shaking at room temperature for one hour. • 7. Remove lysate and wash 4 times with TBST. Transfer freshly diluted anti-Ptyr antibody to ELISA plate at 100 μl per well. Incubate shaking at room temperature for 30 minutes in the presence of the anti-Ptyr antiserum (1:3000 dilution in TBST). • 8. Remove the anti-Ptyr antibody and wash 4 times with TBST. Transfer the freshly diluted TAGO anti-rabbit IgG antibody to the ELISA plate at 100 μl per well. Incubate shaking at room temperature for 30 minutes (anti-rabbit IgG antibody: 1:3000 dilution in TBST). • 9. Remove TAGO detection antibody and wash 4 times with TBST. Transfer freshly prepared ABTS/H2O2 solution to ELISA plate, 100 μl per well. Incubate shaking at room temperature for 20 minutes. (ABTS/H2O2 solution: 1.0 μl 30% H2O2 in 10 ml ABTS stock). • 10. Stop reaction by adding 50 μl 5N H2SO4 (optional), and determine O.D. at 410 nm. • 11. The maximal phosphotyrosine signal is determined by subtracting the value of the negative controls from the positive controls. […]

The target in another test is EGFR (Homo sapiens, UniProt P00533). Put plainly: Biochemical EGFR assay (ELISA, A431 cell lysate). The settings on record: read-out: bio EGFr IC50. Also noted: A431 cell lysate (Screening Lab, SUGEN, Inc.); host or cells: A431. The method, then: This assay measures the in vitro kinase activity of EGFR using ELISA.
Materials and Reagents • 1. […] SUMO1 monoclonal anti-EGFR antibody (Biochemistry Lab, SUGEN, Inc.). • 3. PBS (Dulbecco's Phosphate-Buffered Saline, Gibco Catalog No. 450-1300EB). • 4. TBST Buffer
• 6. A431 cell lysate (Screening Lab, SUGEN, Inc.) • 7. TBS Buffer:
Prepare a 1.0 mM solution in dH2O. This reagent should be made up immediately prior to use and kept on ice. • 10. MnCl2.
Prepare a 1.0 M stock solution in dH2O. • 11. ATP/MnCl2 phosphorylation mix
This reagent should be prepared immediately before use and kept on ice. • 12. NUNC 96-well V bottom polypropylene plates (Applied Scientific Cat. No. AS-72092). • 13. Ethylenediaminetetraacetic acid (EDTA)
Prepare 200 mM working solution in dH2O. Adjust to pH 8.0 with 10 N NaOH. • 14. Rabbit polyclonal anti-phosphotyrosine serum (Biochemistry Lab, SUGEN, Inc.) • 15. Goat anti-rabbit IgG peroxidase conjugate (Biosource Cat. No. ALI0404) • 16. ABTS (2,2′-azino-bis(3-ethylbenzthiazoline-6-sulfonic acid), Sigma Cat. No. A-1888).
Mix first two ingredients in about 900 ml dH2O, adjust pH to 4.0 with phosphoric acid. Add ABTS, cover, let sit about 0.5 hr., filter. The solution should be kept in the dark at 4° C. until ready to use. • 17. Hydrogen peroxide 30% solution (Fisher Cat. No. H325) • 18. ABTS/H2O2 • Mix 15 ml ABTS solution and 2.0 μl H2O2. Prepare 5 minutes before use. • 19. 0.2 M HCl
Procedure • 1. Coat Corning 96 well ELISA plates with 0.5 μg SUMO1 in 100 μl PBS per well, store overnight at 4° C. • 2. Remove unbound SUMO1 from wells by inverting plate to remove liquid., Wash 1× with dH2O. Pat the plate on a paper towel to remove excess liquid. • 3. Add 150 μl of Blocking Buffer to each well. Incubate for 30 min. at room temperature with shaking. • 4. Wash plate 3× with deionized water, then once with TBST. Pat plate on a paper towel to remove excess liquid and bubbles. • 5. Dilute lysate in PBS (7 μg lysate/100 μl PBS). • 6. Add 100 μl of diluted lysate to each well. Shake at room temperature for 60 min. • 7. Wash plates as described in 4, above. • 8. Add 120 μl TBS to ELISA plate containing captured EGFR. • 9. Dilute test compound 1:10 in TBS in 96-well polypropylene plates (i.e. 10 μl compound+90 μl TBS). • 10. Add 13.5 μl diluted test compound to ELISA plate. […] Incubate for 30 minutes while shaking at room temperature. • 12. […] After 5 minutes, stop reaction by adding 16.5 μl of 200 mM EDTA (pH 8.0) to each well, shaking continuously. After the EDTA has been added, shake for 1 min. • 14. Wash 4× with deionized water, twice with TBST. • 15. Add 100 μl anti-phosphotyrosine (1:3000 dilution in TBST) per well. Incubate 30-45 min. at room temperature, with shaking. • 16. Wash as described in 4, above. • 17. Add 100 μl Biosource Goat anti-rabbit IgG peroxidase conjugate (1:2000 dilution in TBST) to each well. Incubate 30 min. at room temperature, with shaking. • 18. Wash as described in 4, above. • 19. Add 100 μl of ABTS/H2O2 solution to each well. • 20. Incubate 5 to 10 minutes with shaking. Remove any bubbles. • 21. If necessary stop reaction with the addition of 100 μl 1 0.2 M HCl per well. • 22. Read assay on Dynatech MR7000 ELISA reader. Test Filter: 410 nM Reference Filter: 630 Nm.

A value given as a limit tells only on which side of the number the result lay.

T1 sequence (P09619 33-1106): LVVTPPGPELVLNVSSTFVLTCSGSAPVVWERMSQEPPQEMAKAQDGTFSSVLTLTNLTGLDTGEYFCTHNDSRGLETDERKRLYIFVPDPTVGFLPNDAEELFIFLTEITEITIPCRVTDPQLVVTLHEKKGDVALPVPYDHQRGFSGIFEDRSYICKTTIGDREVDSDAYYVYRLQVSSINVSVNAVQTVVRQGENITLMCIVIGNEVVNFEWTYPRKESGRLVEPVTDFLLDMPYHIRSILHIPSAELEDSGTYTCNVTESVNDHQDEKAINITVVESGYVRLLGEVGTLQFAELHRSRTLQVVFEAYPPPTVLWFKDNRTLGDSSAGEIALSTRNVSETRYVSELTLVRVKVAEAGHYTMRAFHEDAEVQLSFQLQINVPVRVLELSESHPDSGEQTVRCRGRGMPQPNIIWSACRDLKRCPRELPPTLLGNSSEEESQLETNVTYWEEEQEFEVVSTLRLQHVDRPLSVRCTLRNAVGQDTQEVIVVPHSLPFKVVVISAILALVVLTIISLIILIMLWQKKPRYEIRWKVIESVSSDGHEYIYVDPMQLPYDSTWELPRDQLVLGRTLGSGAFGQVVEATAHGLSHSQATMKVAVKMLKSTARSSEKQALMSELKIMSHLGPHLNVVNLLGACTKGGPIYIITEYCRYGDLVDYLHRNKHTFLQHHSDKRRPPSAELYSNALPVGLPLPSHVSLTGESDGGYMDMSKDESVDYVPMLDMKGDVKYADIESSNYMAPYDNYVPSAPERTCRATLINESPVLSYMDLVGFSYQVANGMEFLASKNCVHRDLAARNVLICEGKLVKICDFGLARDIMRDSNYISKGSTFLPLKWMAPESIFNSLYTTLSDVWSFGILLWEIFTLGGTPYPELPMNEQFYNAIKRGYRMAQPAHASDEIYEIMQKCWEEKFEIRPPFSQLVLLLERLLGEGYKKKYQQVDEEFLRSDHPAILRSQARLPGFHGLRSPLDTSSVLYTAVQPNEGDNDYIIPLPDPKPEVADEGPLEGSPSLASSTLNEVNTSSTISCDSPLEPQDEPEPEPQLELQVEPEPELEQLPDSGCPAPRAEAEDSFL
T2 sequence (P35968 786-1356 limits assumed): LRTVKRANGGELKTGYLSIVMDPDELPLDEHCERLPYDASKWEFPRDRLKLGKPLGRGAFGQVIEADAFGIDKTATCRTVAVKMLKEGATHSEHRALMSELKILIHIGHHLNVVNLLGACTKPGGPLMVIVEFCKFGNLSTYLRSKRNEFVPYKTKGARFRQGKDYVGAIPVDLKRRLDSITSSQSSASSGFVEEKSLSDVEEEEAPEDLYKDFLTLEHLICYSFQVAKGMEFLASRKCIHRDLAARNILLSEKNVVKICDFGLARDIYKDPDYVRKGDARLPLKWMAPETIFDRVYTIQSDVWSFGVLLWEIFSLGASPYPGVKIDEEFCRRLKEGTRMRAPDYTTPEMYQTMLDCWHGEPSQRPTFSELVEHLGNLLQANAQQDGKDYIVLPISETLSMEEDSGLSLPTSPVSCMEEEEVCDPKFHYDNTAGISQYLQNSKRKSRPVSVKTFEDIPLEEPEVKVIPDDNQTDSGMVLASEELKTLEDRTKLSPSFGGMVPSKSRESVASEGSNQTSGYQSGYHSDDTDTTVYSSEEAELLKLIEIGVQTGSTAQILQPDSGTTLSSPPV
T3 sequence (P04626 720-1255 limits assumed, change not shown): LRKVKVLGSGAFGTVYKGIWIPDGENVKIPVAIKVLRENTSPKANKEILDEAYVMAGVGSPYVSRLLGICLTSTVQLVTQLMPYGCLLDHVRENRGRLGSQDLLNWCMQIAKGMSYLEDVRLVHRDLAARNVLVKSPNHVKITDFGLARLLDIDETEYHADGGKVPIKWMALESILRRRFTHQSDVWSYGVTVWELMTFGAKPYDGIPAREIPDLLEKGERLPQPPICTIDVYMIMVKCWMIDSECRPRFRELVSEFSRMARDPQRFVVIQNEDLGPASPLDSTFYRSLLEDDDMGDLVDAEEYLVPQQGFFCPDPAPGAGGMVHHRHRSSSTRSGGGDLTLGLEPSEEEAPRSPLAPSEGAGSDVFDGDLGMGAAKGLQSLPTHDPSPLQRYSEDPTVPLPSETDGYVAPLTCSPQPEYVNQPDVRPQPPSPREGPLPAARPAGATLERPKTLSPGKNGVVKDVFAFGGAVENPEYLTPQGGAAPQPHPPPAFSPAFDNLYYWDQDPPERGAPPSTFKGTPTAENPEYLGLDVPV
Sequence of EGFR (P00533 25-1210): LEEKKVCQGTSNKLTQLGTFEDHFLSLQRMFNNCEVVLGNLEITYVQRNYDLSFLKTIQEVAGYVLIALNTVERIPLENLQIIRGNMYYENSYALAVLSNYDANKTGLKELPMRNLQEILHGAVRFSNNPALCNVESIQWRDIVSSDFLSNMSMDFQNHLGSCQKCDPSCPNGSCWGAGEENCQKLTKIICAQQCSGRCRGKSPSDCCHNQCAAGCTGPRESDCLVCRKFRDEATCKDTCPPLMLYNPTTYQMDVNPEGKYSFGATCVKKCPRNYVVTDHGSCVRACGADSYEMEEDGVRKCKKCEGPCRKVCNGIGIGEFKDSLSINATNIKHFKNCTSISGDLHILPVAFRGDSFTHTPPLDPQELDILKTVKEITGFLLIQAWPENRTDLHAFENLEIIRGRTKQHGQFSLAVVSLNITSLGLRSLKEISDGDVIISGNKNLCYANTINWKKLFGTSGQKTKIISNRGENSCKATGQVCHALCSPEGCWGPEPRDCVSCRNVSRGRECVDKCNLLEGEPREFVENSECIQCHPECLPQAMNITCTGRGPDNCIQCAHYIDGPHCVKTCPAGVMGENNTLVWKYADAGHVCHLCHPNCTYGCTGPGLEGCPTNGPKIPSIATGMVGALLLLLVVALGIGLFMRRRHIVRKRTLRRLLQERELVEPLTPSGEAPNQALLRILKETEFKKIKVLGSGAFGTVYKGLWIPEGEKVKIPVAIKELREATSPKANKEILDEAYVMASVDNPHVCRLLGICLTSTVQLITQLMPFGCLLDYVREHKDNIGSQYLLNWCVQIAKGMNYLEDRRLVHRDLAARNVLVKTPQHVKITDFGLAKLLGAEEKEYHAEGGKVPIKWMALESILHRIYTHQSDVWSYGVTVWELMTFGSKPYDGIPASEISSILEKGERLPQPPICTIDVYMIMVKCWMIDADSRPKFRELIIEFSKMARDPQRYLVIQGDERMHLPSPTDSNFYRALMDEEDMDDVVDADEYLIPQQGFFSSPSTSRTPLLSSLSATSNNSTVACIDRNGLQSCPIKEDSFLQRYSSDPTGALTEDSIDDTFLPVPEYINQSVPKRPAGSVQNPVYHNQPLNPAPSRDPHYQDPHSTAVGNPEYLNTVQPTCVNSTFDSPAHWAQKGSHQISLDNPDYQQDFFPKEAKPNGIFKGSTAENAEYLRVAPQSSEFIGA

As to `CCOC(=O)c1c(C)[nH]c(/C=C2\C(=O)Nc3ccc(OC)cc32)c1CCCN(C)C` [Example 120, 4-(3-Dimethylaminopropyl)-5-(5-methoxy-2-oxo-1,2-dihydroindol-3-ylidenemethyl)-2-methyl-1H-pyrrole-3-carboxylic acid ethyl ester], the figures for the IC50 at PDGFR-β and against flkGST were 9.97 µM and 6.32 µM, respectively.

Take `CCOC(=O)c1c(C)[nH]c(/C=C2\C(=O)Nc3ccc(OC)cc32)c1CCCN1CCN(C)CC1` [Example 122, 5-(5-Methoxy-2-oxo-1,2-dihydroindol-3-ylidenemethyl)-2-methyl-4-[3-(4-methylpiperazin-1-yl)-propyl]-1h-pyrrole-3-carboxylic acid ethyl ester]: the results for the IC50 on PDGFR-β and against flkGST were 2.13 µM and 0.51 µM, respectively.

In the case of `CCOC(=O)c1c(C)[nH]c(/C=C2\C(=O)Nc3ccc(S(N)(=O)=O)cc32)c1CCCN1CCCC1` [Example 130, 2-Methyl-5-(2-oxo-5-sulfamoyl-1,2-dihydroindol-3-ylidenemethyl)-4-(3-pyrrolidin-1-ylpropyl)-1H-pyrrole-3-carboxylic acid ethyl ester], the half-maximal inhibitory concentration (IC50) at PDGFR-β was 2.32 µM; at flkGST, 12.9 µM.

For the molecule `Cc1c(C=C2C(=O)Nc3ccc(S(=O)(=O)N(C)C)cc32)[nH]c2ccccc12` (racemic) [Example 155, 3-(3-Methyl-1H-indol-2-ylmethylene)-2-oxo-2,3-dihydro-1H-indole-5-sulfonic acid dimethylamide], the IC50 (in test [1]; on EGFR) was over 100 µM throughout.
